Laboratory results: patent US8829195B2, “Compounds and compositions for inhibiting the activity of ABL1, ABL2 and BCR-ABL1” (Novartis AG, priority 2012, dated 2014)
pIC50: −log10 of the molar value.

Experiments:
[1] = system: KCL-22 xenograft; experiment: In vivo efficacy in KCL-22 xenograft model, dual agent treatment; parameters: species or system mouse
Protocol: In Vivo Efficacy in KCL-22 Xenograft Model—Dual Agent Treatment 6-8 week old female nude mice purchased from Harlan (Indianapolis Ind.) were implanted subcutaneously with 2×10^6 KCL-22 cells in 50% matrigel (BD Biosciences, #354234) in the right dorsal axillary region. […] Compounds of the invention in a phosphate-buffered saline solution were prepared weekly and dosed by oral gavage at 30 mg/kg twice daily, and Nilotinib solution was dosed at 75 mg/kg twice daily. Animals received either single agent alone or combination of both simultaneously. Tumor volume was determined by twice weekly digital calipering and calculated as Length×Width^2/2.

[2] = system: KCL-22 xenograft; experiment: In vivo efficacy in KCL-22 xenograft model, single agent treatment; parameters: species or system mouse
Protocol: In Vivo Efficacy in KCL-22 Xenograft Model—Single Agent Treatment Compounds of the invention were dosed orally in a mouse KCL-22 xenograft model for 7 days. 6-8 week old female nude mice purchased from Harlan (Indianapolis Ind.) were implanted subcutaneously with 5×10^6 KCL-22 cells in 50% matrigel (BD Biosciences, #354234) in the right dorsal axillary region. […] Compounds of the invention in phosphate buffered saline were prepared weekly and dosed by oral gavage at 3-30 mg/kg twice daily (n=6 mice per dose level). Tumor volume was determined by twice weekly digital calipering and calculated as Length×Width^2/2.

[3] = Estimation of human PK parameters and efficacious dose from in vivo PK; details: estimated from in vivo PK
Description: In vivo PK parameters can be utilized for the estimation of human PK parameters. Applying various methods known in the art for prediction of human PK, the predicted human clearance can be estimated.

[4] = biological target: T1, Ba/F3-BCR-ABL1-T315I cells (Homo sapiens, UniProt P00519, T315I, cells depend on it); experiment: Ba/F3-BCR-ABL1-T315I cell proliferation assay; assay type: cell-based, murine; details: 48 hours; read-out: Ba/F3-BCR-ABL1-T315I IC50
T1 construct: A similar approach was used to generate Ba/F3 cells that depend on a BCR-ABL1 variant in which threonine 315 is replaced with isoleucine; fused on or other part: P11274 (Breakpoint cluster region protein)

[5] = biological target: T2, ABL1 (64-515) (Homo sapiens, UniProt P00519); experiment: Radio ABL1 (64-515) radiometric filter-binding assay; assay type: biochemical
T2 construct: 3.5 nM ABL (ABL(64-515), produced in-house from E. coli); His6 followed by a PreScission protease cleavage site (N, cleaved yes); made in house; host or cells: E. coli (BL21 (DE3) according to b733)

[6] = biological target: T2, ABL1 (64-515); experiment: Caliper ABL1 (64-515) microfluidic mobility shift assay; assay type: biochemical; details: Table of Biochemical Data
[7] = biological target: T3, Ba/F3-BCR-ABL1-WT cells (Homo sapiens, UniProt P00519); experiment: Ba/F3-BCR-ABL1-WT cell proliferation assay; assay type: cell-based, murine; details: 48 hours; read-out: Ba/F3-BCR-ABL1-WT IC50
T3 construct: fused on or other part: P11274 (Breakpoint cluster region protein)

Compound	GI50 [4]	pIC50 [5]	pIC50 [6]	GI50 [7]	further results
O=C(Nc1ccc(OC(F)(F)Cl)cc1)c1cnc(N2CC[C@@H](O)C2)c(-c2ccn[nH]2)c1 [Example 9, (R)—N-(4-(Chlorodifluoromethoxy)phenyl)-6-(3-hydroxypyrrolidin-1-yl)-5-(1H-pyrazol-5-yl)nicotinamide]	–	–	–	–	response of nilotinib resistant tumors (FIG. 3) ([1]; 30 mg/kg BID after resistance to 75 mg/kg Nilotinib BID): regression of the tumors; tumor growth inhibition compared to vehicle-treated mice ([2]; 3 mg/kg twice daily, oral, 7 days): 45%; tumor regression ([2]; 7.5 mg/kg twice daily, oral, 7 days): 56%; tumor regression ([2]; 15 mg/kg twice daily, oral, 7 days): 88%; tumor regression ([2]; 30 mg/kg twice daily, oral, 7 days): 92%; antitumor activity (FIG. 2) ([2]; daily treatment, subcutaneous KCL-22 xenografts): Dose-dependent antitumor activity; predicted human clearance [3]: 3 mL/min/kg; Vd ([3]; human, read-out: volume of distribution (human, estimated)): 1 L/kg
Cc1cn(-c2cc(NC(=O)c3ccc(C)c(Nc4nccc(-c5cccnc5)n4)c3)cc(C(F)(F)F)c2)cn1 [nilotinib]	–	–	–	–	tumor regression ([1]; nilotinib alone 75 mg/kg twice daily, after 4 week daily treatment): > 84%; tumor volume on relapse ([1]; nilotinib alone, after the 4 week response, most tumors): > 500 mm^3; tumor regression ([2]; 75 mg/kg twice daily, positive control): 82%
O=C(Nc1ccc(OC(F)(F)F)cc1)c1cnc(N2CC[C@H](CO)C2)c(-c2ccn[nH]2)c1 [Example 7, (S)-6-(3-(Hydroxymethyl)pyrrolidin-1-yl)-5-(1H-pyrazol-5-yl)-N-(4-(trifluoromethoxy)phenyl)nicotinamide]	132 nM	> 8.52	9.40	6 nM	–
O=C(Nc1ccc(OC(F)(F)F)c(F)c1)c1cnc(N2CC[C@H](CO)C2)c(-c2ccn[nH]2)c1 [Example 14, (S)—N-(3-Fluoro-4-(trifluoromethoxy)phenyl)-6-(3-(hydroxymethyl)pyrrolidin-1-yl)-5-(1H-pyrazol-5-yl)nicotinamide]	218 nM	8.00	9.05	18.9 nM	–

Second part, led by results:

GI50 [4]	pIC50 [5]	pIC50 [6]	GI50 [7]	Compound	further results
199 nM	8.52	8.62	15.5 nM	O=C(Nc1ccc(S(F)(F)(F)(F)F)cc1)c1cnc(N2CC[C@@H](O)C2)c(-c2ccn[nH]2)c1 [Example 17, (R)-6-(3-Hydroxypyrrolidin-1-yl)-N-(4-(pentafluorosulfanyl)phenyl)-5-(1H-pyrazol-5-yl)nicotinamide]	–
227 nM	7.92	7.98	9 nM	O=C(Nc1ccc(OC(F)(F)Cl)cc1)c1cnc(N2CC[C@@H](O)C2)c(-c2cc(C(F)(F)F)n[nH]2)c1 [Example 26, (R)—N-(4-(Chlorodifluoromethoxy)phenyl)-6-(3-hydroxypyrrolidin-1-yl)-5-(3-(trifluoromethyl)-1H-pyrazol-5-yl)nicotinamide]	–
